# Measurements taken from PMC11982498 (Redox Biology, 2025).
# Key:
# [1] = system: BAX gene transcription in SH-SY5Y cells; experiment: Real-time RT-PCR in SH-SY5Y cells, BAX; type: cell-based, human
# Procedure: (§1) SH-SY5Y cells were treated with or without B14, and total RNA was subsequently isolated and purified. Reverse transcription was performed using a cDNA synthesis kit. The relative transcription levels of the genes were evaluated through quantitative real-time PCR using the SYBR Green-based method, as described in the Supplementary Date. Details regarding the primer sequences and the raw data can be found in Table S7 and Table S8.
# (§2) ^a -∆∆Ct = -[(Ct value of genes in treated sample - Ct value of genes in control) - (Ct value of β-actin in treated sample - Ct value of β-actin in control)]. ^b F: The relative expression fold.
# (§3) Experiment 1: SH-SY5Y cells were treated with different concentration of B14. The Ct values of BAX, VEGF, CMYC and BCL-2 were obtained.
# (§4) Total RNA was extracted from cells and mice liver tissue using RNAiso Plus (Takara, 9109, Japan). Following sample homogenization, chloroform was added, and the solution was allowed to have phase separation into an upper aqueous layer (containing RNA), an interphase, and a lower organic layer (containing DNA and proteins). RNA was precipitated from the aqueous phase using isopropanol, while DNA was precipitated from the aqueous-organic interphase using ethanol. Complementary DNA (cDNA) was synthesized using the One-Step RT-PCR Kit (Takara, Cat#639503, Japan).
# (§5) Quantitative real-time polymerase chain reaction (qRT-PCR) was performed using the 2× RealStar SYBR Mixture (GenStar, Cat# A301-10, Guangzhou, China) on a LightCycler 480 II real-time PCR system (Roche, USA). Data were analyzed using the 2^−ΔΔCt method. Actin served as the internal control, and relative mRNA levels were normalized accordingly.
# HK-2 cells = experiment: MTT cytotoxicity assay, HK-2; type: cell-based; conditions: Homo sapiens, incubation for 48 h
# Procedure: SH-SY5Y cells, HepG2 cells, HK-2 cells and HT-22 cells were seeded on 96-well plates (5.0×10^3 per well) with 100 μL of culture medium, and incubated for 12 h at 37 °C in a humidified atmosphere with 5% CO2, and then exposed to various concentrations of B14. After 48 h of treatment at 37 °C in a humidified atmosphere with 5% CO2, 100 μL of 0.5 mg/mL MTT solution was added to each well, and the mixture was further incubated for 4 h. The cells in each well were then treated with DMSO (200 μL for each well), and the culture medium was siphoned off, and the absorbance was recorded at 570 nm. All drug doses were parallel tested in triplicate, and the cytotoxicity was evaluated based on the percentage of cell survival in a dose-dependent manner regarding the negative control. The final IC50 values were determined by using Graph Pad Prism 9.0.
# BCL-2 i-motif = experiment: ESI-MS with BCL-2 i-motif; type: binding; conditions: pH 6.5
# Procedure: The oligomer for BCL-2 promoter […] at concentration of 5 μM was annealed in 1 × BPES buffer with or without 20 μM B14 at 95 °C for 5 min, followed by cooling to room temperature. Mass spectrometry signals were collected by using ESI-MS (Thermo, LCQ DECA Plus XP) and analyzed by using pro-mass.
# [2] = system: GFAP, Iba-1, NF-κB, TNF-α and IL-6 in hippocampus of APP/PS1 mice; experiment: Neuroinflammation markers in hippocampus; type: in vivo
# Procedure: Protein samples (25–40 μg) were separated using 10 % SDS-PAGE and subsequently transferred onto PVDF membranes (0.22 μm, Servicebio, Guangzhou, China) via electro transfer. Following blocking with TBST solution (Servicebio, Guangzhou, China) containing 5 % BSA (Solarbio, Beijing, China) for approximately 60 min at room temperature, the membrane was exposed to various primary antibodies overnight at 4 °C on a rotating shaker. Then, the membranes were incubated with HRP-conjugated secondary antibody (Affinity, Changzhou, China) for 2 h. Protein bands were then detected using an ECL kit. The signal intensity of each target protein was quantified using Image J 1.8.0 software (Bio-Rad Laboratories, California, USA).
# Five months old male APP/PS1 mice, weighing 25–33 g, were purchased from Guangdong Medical Laboratory Animal Center and housed in the Laboratory Animal Center of Sun Yat-sen University (Guangzhou, China) for experimentation. All procedures were approved by the Animal Care and Use Committee of Sun Yat-sen University and complied with legal requirements and national guidelines for the care and maintenance of laboratory animals (Approval No. SYSU-IACUC-2024-002032). The mice were housed in a specific pathogen-free environment with a controlled temperature of 22 ± 1 °C and a 12-h dark/light cycle. […]
# [3] = system: C-MYC gene transcription in SH-SY5Y cells; experiment: Real-time RT-PCR in SH-SY5Y cells, C-MYC; type: cell-based, human
# Procedure: as §1, §2, §3, §4, §5
# [4] = system: RB (DNA, i motif) GCCGCCCAAAACCCCCCG; experiment: thiazole orange displacement; conditions: K+ 100 mM KCl plus potassium phosphate; BPES buffer, pH 5.5, 25 °C; 1 μM DNA, 1 μM TO; displacement only 1 %
# [5] = system: VEGF gene transcription in SH-SY5Y cells; experiment: Real-time RT-PCR in SH-SY5Y cells, VEGF; type: cell-based, human
# Procedure: as §1, §2, §3, §4, §5
# [6] = system: BCL-2 gene transcription in SH-SY5Y cells; experiment: Real-time RT-PCR in SH-SY5Y cells, BCL-2; type: cell-based, human
# Procedure: as §1, §2, §3, §4, §5
compound,measurement,setting,value
O=C(CCN1CCOCC1)Nc1ccc2c(c1)c(=O)c1cc(NC(=O)CCN3CCOCC3)ccc1n2-c1ccc2occc2c1 [Compound B14],"-∆∆Ct, BAX",[1]; 6.25 μM B14,-0.13
same,"F = 2^-∆∆Ct (relative expression fold), BAX",[1]; 6.25 μM B14,1.09
same,"-∆∆Ct, BAX",[1]; 12.5 μM B14,0
same,"F = 2^-∆∆Ct (relative expression fold), BAX",[1]; 12.5 μM B14,1.00
same,"-∆∆Ct, BAX",[1]; 25 μM B14,-0.03
same,"F = 2^-∆∆Ct (relative expression fold), BAX",[1]; 25 μM B14,1.02
same,IC50,HK-2 cells,> 100 µM
same,adduct peak in ESI-MS,BCL-2 i-motif,could bind tightly to BCL-2 i-motif
same,activation of astrocytes (GFAP) and microglia (Iba-1),[2],reduce the activations of astrocytes
same,expressions of inflammatory factors,[2],"decrease the expressions of the inflammatory factors NF-κB, TNF-α and IL-6"
same,"-∆∆Ct, C-MYC",[3]; 6.25 μM B14,-0.01
same,"F = 2^-∆∆Ct (relative expression fold), C-MYC",[3]; 6.25 μM B14,1.00
same,"-∆∆Ct, C-MYC",[3]; 12.5 μM B14,-0.02
same,"F = 2^-∆∆Ct (relative expression fold), C-MYC",[3]; 12.5 μM B14,1.01
same,"-∆∆Ct, C-MYC",[3]; 25 μM B14,-0.03
same,"F = 2^-∆∆Ct (relative expression fold), C-MYC",[3]; 25 μM B14,1.02
same,binding,[4],no
same,"-∆∆Ct, VEGF",[5]; 6.25 μM B14,-0.01
same,"F = 2^-∆∆Ct (relative expression fold), VEGF",[5]; 6.25 μM B14,1.00
same,"-∆∆Ct, VEGF",[5]; 12.5 μM B14,-0.01
same,"F = 2^-∆∆Ct (relative expression fold), VEGF",[5]; 12.5 μM B14,1.00
same,"-∆∆Ct, VEGF",[5]; 25 μM B14,-0.03
same,"F = 2^-∆∆Ct (relative expression fold), VEGF",[5]; 25 μM B14,1.02
same,"-∆∆Ct, BCL-2",[6]; 6.25 μM B14,-0.31
same,"F = 2^-∆∆Ct (relative expression fold), BCL-2",[6]; 6.25 μM B14,1.23
same,"-∆∆Ct, BCL-2",[6]; 12.5 μM B14,-0.73
same,"F = 2^-∆∆Ct (relative expression fold), BCL-2",[6]; 12.5 μM B14,1.65
same,"-∆∆Ct, BCL-2",[6]; 25 μM B14,-1.11
same,"F = 2^-∆∆Ct (relative expression fold), BCL-2",[6]; 25 μM B14,2.15
